Laboratory results published in patent US9018208B2, “Heterocycles as potassium channel modulators” (Icagen Inc., priority 2007, dated 2015).
Like-named read-outs stand apart in the source and are kept apart here.

How the values were obtained:
[1] = test system: SH-SY5Y M-currents (KCNQ2, KCNQ3 and KCNQ5); test: SH-SY5Y native cell line FLIPR assay (voltage-sensitive dye DiBAC); type: cell-based, mouse neuroblastoma, rat glioma hybrid cell line; settings: SH-SY5Y native cell line, read-out: SH-SY5Y EC50
In short: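 Response is peak DiBAC fluorescence change, normalised to the maximum from a positive control agent, sampled every 30 s over 25 min. Before compound addition, SH-SY5Y cells differentiated with PGE1 plus isomethylbutylxanthine were dye-loaded for 1 h in EBSS with […] DiBAC.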

[2] = Metabolic stability in rats after oral administration (mass spectrometry); type: in vivo, rat; settings: result in words
Text: Metabolite 14% of parent for compound 65 and metabolite 35% of parent for compound 366 were observed.

[3] = test system: electroshock seizure, Male Wistar rats; test: In vivo rat assay for anti-convulsant activity (rat MES, electroshock seizure); settings: for Rat MES activity: single dose screening, typically 10 mg/kg, animals protected from hind limb extension; for ED50: Rattus norvegicus, po
Protocol: Male Wistar rats were housed 4 per cage on a regular light/dark cycle (lights on 0600-1800) for one week prior to anti-convulsant testing. The apparatus used to induce electroshock seizure was obtained from Walhquist Instrument Co., Salt Lake City, Utah. The shock level was set at 150 mA and the duration at 0.2 seconds. A drop of 1% proparacaine solution was placed in each eye of a rat, the electrodes were placed over the eyes, and the shock was administered. Latency to hind limb extension was measured to the nearest 0.1 second.
The KCNQ opener was homogenized in either 0.5% carboxymethylcellulose in water or 0.5% methylcellulose in water) and administered orally through a steel 18-gauge rat gavage tube in a volume of 2 mL/kg of body weight. In the single dose screening assay, latency to seizure for the vehicle group and the KCNQ opener group were compared using t-test. Typically a dose of 10 mg/kg of the opener is used. However, openers can be run n a dose-response experiment where doses of 1, 3, 10 and 30 mg/Kg are used.
In the single dose screening assay, latency to seizure for the vehicle and the 10 mg/kg groups were compared using t-test. Latencies to seizure in the dose response studies were submitted to analysis of variance and all dose groups were compared to vehicle using Dunnett's method (JMP© ver 5.1, SAS). In all cases an effect was considered significant if p≦0.05.

Compound | Rat MES activity ([3]; oral) | ED50 ([3]; rat MES dose-response) | EC50 ([1]; FLIPR assay (Table 6)) | other results
CC(C)(C)CC(=O)Nc1nc2ccc(C(F)(F)F)cn2c1C1CC1 [Compound 65, N-(3-cyclopropyl-6-(trifluoromethyl)imidazo[1,2-a]pyridin-2-yl)-3,3-dimethylbutanamide] |  |  |  | EC50 ([1]; FLIPR assay, Table 1): 0.5 to 3 µM; metabolism in rats [2]: undergo metabolism at the terminal carbon of the t-butyl group
CC(C)(C)CC(=O)Nc1nc2ccc(Cl)nn2c1-c1ccc(C(F)(F)F)cc1 [Compound 271, N-(6-chloro-3-(4-(trifluoromethyl)phenyl)imidazo[1,2-b]pyridazin-2-yl)-3,3-dimethylbutanamide] | ++ (++ 4-6 animals protected) |  |  | EC50 ([1]; FLIPR assay, Table 2): < 0.5 µM
Cc1ccc2nc(NC(=O)CC(C)(C)C)c(-c3cccc(C(F)(F)F)c3)n2n1 [Compound 308, 3,3-dimethyl-N-(6-methyl-3-(3-(trifluoromethyl)phenyl)imidazo[1,2-b]pyridazin-2-yl)butan amide] | +++ (+++ 7-8 animals protected) | 1.6 mg/kg |  | EC50 ([1]; FLIPR assay, Table 2): < 0.5 µM
Cc1ccc2nc(NC(=O)CC(C)C(F)(F)F)c(-c3cccc(C(F)(F)F)c3)n2n1 (stereo not drawn) [Compound 316, 4,4,4-trifluoro-3-methyl-N-(6-methyl-3-(3-(trifluoromethyl)phenyl)imidazo[1,2-b]pyridazin-2-yl)butanamide] | ++ (++ 4-6 animals protected) |  |  | EC50 ([1]; FLIPR assay, Table 2): < 0.5 µM
CC(C)(C)CC(=O)Nc1nc2ccc(F)cn2c1-c1ccc(C(F)(F)F)cn1 [Compound 353, N-(6-fluoro-3-(5-(trifluoromethyl)pyridin-2-yl)imidazo[1,2-a]pyridin-2-yl)-3,3-dimethylbutanamide] | +++ (+++ 7-8 animals protected) |  |  | EC50 ([1]; FLIPR assay (Table 3)): < 0.5 µM
CC(C)(C)CC(=O)Nc1nc2ccc(F)cn2c1-c1nc2ccccc2s1 [Compound 360, N-(3-(benzo[d]thiazol-2-yl)-6-fluoroimidazo[1,2-a]pyridin-2-yl)-3,3-dimethylbutanamide] | + (+ 2-3 animals protected) |  |  | EC50 ([1]; FLIPR assay (Table 3)): < 0.5 µM
CC(C)(C)CC(=O)Nc1nc2ccc(F)cn2c1-c1ccc(Cl)cn1 [Compound 363, N-(3-(5-chloropyridin-2-yl)-6-fluoroimidazo[1,2-a]pyridin-2-yl)-3,3-dimethylbutanamide] | ++ (++ 4-6 animals protected) |  |  | EC50 ([1]; FLIPR assay (Table 3)): < 0.5 µM
CC(C)(C)CC(=O)Nc1nc2ccc(F)cn2c1-c1cc(C(F)(F)F)ccn1 [Compound 366, N-(6-fluoro-3-(4-(trifluoromethyl)pyridin-2-yl)imidazo[1,2-a]pyridin-2-yl)-3,3-dimethylbutanamide] |  |  |  | EC50 ([1]; FLIPR assay (Table 3)): < 0.5 µM; metabolism in rats [2]: undergo metabolism at the terminal carbon of the t-butyl group
CC(C)(C)CC(=O)Nc1nc2ccc(F)cn2c1-c1nccs1 [Compound 371, N-(6-fluoro-3-(thiazol-2-yl)imidazo[1,2-a]pyridin-2-yl)-3,3-dimethyl butanamide] | ++ (++ 4-6 animals protected) | 3.6 mg/kg |  | EC50 ([1]; FLIPR assay (Table 3)): 0.5 to 3 µM
CC(C)(C(=O)Nc1nc2ccc(C(F)(F)F)cn2c1C1CCC1)C(F)(F)F [Compound 428, N-(3-cyclobutyl-6-(trifluoromethyl)imidazo[1,2-a]pyridin-2-yl)-3,3,3-trifluoro-2,2-dimethylpropanamide] | +++ (+++ 7-8 animals protected) | 1.1 mg/kg | < 0.5 µM | 
CC(C)(C(=O)Nc1nc2ccc(C(F)(F)F)cn2c1C1CC1)C(F)(F)F [Compound 429, N-(3-cyclopropyl-6-(trifluoromethyl)imidazo[1,2-a]pyridin-2-yl)-3,3,3-trifluoro-2,2-dimethylpropanamide] | +++ (+++ 7-8 animals protected) | 3.4 mg/kg | 0.5 to 3 µM | 
O=C(Nc1nc2ccc(C(F)(F)F)cn2c1C1CCCC1)c1ccc(F)c(F)c1 [Compound 430, N-(3-cyclopentyl-6-(trifluoromethyl)imidazo[1,2-a]pyridin-2-yl)-3,4-difluorobenzamide] | ++ (++ 4-6 animals protected) | 2.3 mg/kg | 0.5 to 3 µM | 
CC(C)(CC(=O)Nc1nc2ccc(C(F)(F)F)cn2c1C1CCC1)C(F)(F)F [Compound 431, N-(3-cyclobutyl-6-(trifluoromethyl)imidazo[1,2-a]pyridin-2-yl)-4,4,4-trifluoro-3,3-dimethylbutanamide] | +++ (+++ 7-8 animals protected) | 5.2 mg/kg | < 0.5 µM | metabolism in rats [2]: little or no metabolism
CC(C)(CC(=O)Nc1nc2ccc(F)cn2c1-c1cc(C(F)(F)F)ccn1)C(F)(F)F [Compound 433, 4,4,4-trifluoro-N-(6-fluoro-3-(4-(trifluoromethyl)pyridin-2-yl)imidazo[1,2-a]pyridin-2-yl)-3,3-dimethylbutanamide] |  | 3.9 mg/kg | 0.5 to 3 µM | metabolism in rats [2]: little or no metabolism
O=C(Nc1nc2ccc(C(F)(F)F)nn2c1C1CC1)c1ccc(F)c(F)c1 [Compound 434, N-(3-cyclopropyl-6-(trifluoromethyl)imidazo[1,2-b]pyridazin-2-yl)-3,4-difluorobenzamide] | ++ (++ 4-6 animals protected) |  | 0.5 to 3 µM | 
CC(C)(C(=O)Nc1nc2ccc(C(F)(F)F)nn2c1C1CC1)C(F)(F)F [Compound 435, N-(3-cyclopropyl-6-(trifluoromethyl)imidazo[1,2-b]pyridazin-2-yl)-3,3,3-trifluoro-2,2-dimethylpropanamide] | +++ (+++ 7-8 animals protected) |  | 0.5 to 3 µM | 
CC(C)(C(=O)Nc1nc2ccc(C(F)(F)F)nn2c1C1CCC1)C(F)(F)F [Compound 437, N-(3-cyclobutyl-6-(trifluoromethyl)imidazo[1,2-b]pyridazin-2-yl)-3,3,3-trifluoro-2,2-dimethylpropanamide] | +++ (+++ 7-8 animals protected) |  | 0.5 to 3 µM | 
CC(C)(CC(=O)Nc1nc2ccc(C(F)(F)F)nn2c1C1CCC1)C(F)(F)F [Compound 439, N-(3-cyclobutyl-6-(trifluoromethyl)imidazo[1,2-b]pyridazin-2-yl)-4,4,4-trifluoro-3,3-dimethylbutanamide] | +++ (+++ 7-8 animals protected) | 0.47 mg/kg | < 0.5 µM | 
CC(C)(CC(=O)Nc1nc2ccc(F)cn2c1C1CCC1)C(F)(F)F [Compound 446, N-(3-cyclobutyl-6-fluoroimidazo[1,2-a]pyridin-2-yl)-4,4,4-trifluoro-3,3-dimethylbutanamide] | +++ (+++ 7-8 animals protected) |  | < 0.5 µM | 
N-(3-cyclobutyl-6-(trifluoromethyl)imidazo[1,2-b]pyridazin-2-yl)-4,4,4-trifluoro-3,3-dimethylbutanamide [Compound 438] | +++ (+++ 7-8 animals protected) |  | < 0.5 µM | 
N-(3-cyclopropyl-6-(trifluoromethyl)imidazo[1,2-b]pyridazin-2-yl)-4,4,4-trifluoro-3,3-dimethylbutanamide [Compound 436] |  |  | 0.5 to 3 µM | ED50 (mpk) ([3]; rat MES dose-response, oral): 0.7 mpk
